Laboratory results: patent publication US12708665B2, “Anti-IL-1β antibody therapy in arrhythmogenic cardiomyopathy (ACM)” (Beth Israel Deaconess Medical Center, Inc., priority 2019, dated 2026)

Test system: Dsg2^mut/mut mice
Assay: Cytokine arrays, cytokine expression in hearts of Dsg2^mut/mut mice treated with Bay 11-7082
Assay type: in vivo
From the text: Quantitative data (mean±SEM; n=5) for expression of selected cytokines in hearts of vehicle-treated wildtype (WT) mice, Dsg2^mut/mut mice and Dsg2^mut/mut mice treated with Bay 11-7082. * P<0.05 compared to WT; †P<0.05 for treated vs. untreated Dsg2^mut/mut mice.
To characterize production of chemical mediators of the immune response in ACM, we used arrays to measure 111 different cytokines in the hearts of Dsg2^mut/mut mice and compared the amounts to those measured in the hearts of WT mice and Dsg2^mut/mut mice treated with Bay 11-7082. We observed substantial expression of multiple cytokines in the hearts of Dsg2^mut/mut mice. […] Powerful inflammatory mediators were expressed in Dsg2^mut/mut hearts including IL-1β (up by ~13-fold compared to WT hearts), IFNγ (~5-fold), IL-12 (~6-fold) and TNFα (~2-fold). […] Finally, there were increases in some molecules that fulfill anti-inflammatory roles such as IL-1Ra (up by ~4-fold).

[1] = cytokine expression level, mouse heart

For `Cc1ccc(S(=O)(=O)/C=C/C#N)cc1` [Bay11-7082], the “LIX (CXCL5) level” value (ACM (Dsg2^mut/mut) mice treated with Bay 11-7082, result in words) was “markedly reduced”, the OPN expression (Dsg2^mut/mut mice treated with Bay 11-7082, result in words) was “reduced” and the “Adiponectin, Dsg2^mut/mut (Bay11-7082) vs Dsg2^mut/mut” value [1] was less than 1. The “Adiponectin, Dsg2^mut/mut (Bay11-7082) vs WT” value [1] was less than 1, the “Amphiregulin, Dsg2^mut/mut (Bay11-7082) vs Dsg2^mut/mut” value [1] was less than 1 and the “Amphiregulin, Dsg2^mut/mut (Bay11-7082) vs WT” value [1] was less than 1. The “Angiopoietin-1, Dsg2^mut/mut (Bay11-7082) vs Dsg2^mut/mut” value [1] was less than 1, the “Angiopoietin-1, Dsg2^mut/mut (Bay11-7082) vs WT” value [1] was less than 1 and the “Angiopoietin-2, Dsg2^mut/mut (Bay11-7082) vs Dsg2^mut/mut” value [1] was 1-2. The “Angiopoietin-2, Dsg2^mut/mut (Bay11-7082) vs WT” value [1] was less than 1, the “Angiopoietin-like 3, Dsg2^mut/mut (Bay11-7082) vs Dsg2^mut/mut” value [1] was less than 1 and the “Angiopoietin-like 3, Dsg2^mut/mut (Bay11-7082) vs WT” value [1] was less than 1. The “BAFF/BLyS/TNFSF13B, Dsg2^mut/mut (Bay11-7082) vs Dsg2^mut/mut” value [1] was less than 1, the “BAFF/BLyS/TNFSF13B, Dsg2^mut/mut (Bay11-7082) vs WT” value [1] was less than 1 and the “C1qR1/CD93, Dsg2^mut/mut (Bay11-7082) vs Dsg2^mut/mut” value [1] was less than 1. For the same molecule, the “C1qR1/CD93, Dsg2^mut/mut (Bay11-7082) vs WT” value [1] was less than 1, the “C-Reactive Protein/CRP, Dsg2^mut/mut (Bay11-7082) vs Dsg2^mut/mut” value [1] was less than 1 and the “C-Reactive Protein/CRP, Dsg2^mut/mut (Bay11-7082) vs WT” value [1] was less than 1. For the same molecule, the “CCL2/JE/MCP-1, Dsg2^mut/mut (Bay11-7082) vs Dsg2^mut/mut” value [1] was less than 1, the “CCL2/JE/MCP-1, Dsg2^mut/mut (Bay11-7082) vs WT” value [1] was less than 1 and the “CCL3/CCL4/MIP-1a/B, Dsg2^mut/mut (Bay11-7082) vs Dsg2^mut/mut” value [1] was less than 1. For the same molecule, the “CCL3/CCL4/MIP-1a/B, Dsg2^mut/mut (Bay11-7082) vs WT” value [1] was less than 1, the “CCL5/RANTES, Dsg2^mut/mut (Bay11-7082) vs Dsg2^mut/mut” value [1] was less than 1 and the “CCL5/RANTES, Dsg2^mut/mut (Bay11-7082) vs WT” value [1] was less than 1. The “CCL6/C10, Dsg2^mut/mut (Bay11-7082) vs Dsg2^mut/mut” value [1] was less than 1, the “CCL6/C10, Dsg2^mut/mut (Bay11-7082) vs WT” value [1] was less than 1 and the “CCL17/TARC, Dsg2^mut/mut (Bay11-7082) vs Dsg2^mut/mut” value [1] was less than 1. For the same molecule, the “CCL17/TARC, Dsg2^mut/mut (Bay11-7082) vs WT” value [1] was less than 1, the “CCL19/MIP-3B, Dsg2^mut/mut (Bay11-7082) vs Dsg2^mut/mut” value [1] was less than 1 and the “CCL19/MIP-3B, Dsg2^mut/mut (Bay11-7082) vs WT” value [1] was less than 1. The “CCL20/MIP-3a, Dsg2^mut/mut (Bay11-7082) vs Dsg2^mut/mut” value [1] was less than 1, the “CCL20/MIP-3a, Dsg2^mut/mut (Bay11-7082) vs WT” value [1] was less than 1 and the “CCL21/6Ckine, Dsg2^mut/mut (Bay11-7082) vs Dsg2^mut/mut” value [1] was less than 1. The “CCL21/6Ckine, Dsg2^mut/mut (Bay11-7082) vs WT” value [1] was less than 1, the “CCL22/MDC, Dsg2^mut/mut (Bay11-7082) vs Dsg2^mut/mut” value [1] was less than 1 and the “CCL22/MDC, Dsg2^mut/mut (Bay11-7082) vs WT” value [1] was less than 1. The “CD14, Dsg2^mut/mut (Bay11-7082) vs Dsg2^mut/mut” value [1] was 1-2, the “CD14, Dsg2^mut/mut (Bay11-7082) vs WT” value [1] was less than 1 and the “CD40/TNFRSF5, Dsg2^mut/mut (Bay11-7082) vs Dsg2^mut/mut” value [1] was less than 1. For the same molecule, the “CD40/TNFRSF5, Dsg2^mut/mut (Bay11-7082) vs WT” value [1] was less than 1, the “CD160, Dsg2^mut/mut (Bay11-7082) vs Dsg2^mut/mut” value [1] was less than 1 and the “CD160, Dsg2^mut/mut (Bay11-7082) vs WT” value [1] was less than 1. The “CX3CL1/Fractalkine, Dsg2^mut/mut (Bay11-7082) vs Dsg2^mut/mut” value [1] was less than 1, the “CX3CL1/Fractalkine, Dsg2^mut/mut (Bay11-7082) vs WT” value [1] was less than 1 and the “CXCL9/MIG, Dsg2^mut/mut (Bay11-7082) vs Dsg2^mut/mut” value [1] was less than 1. For the same molecule, the “CXCL9/MIG, Dsg2^mut/mut (Bay11-7082) vs WT” value [1] was less than 1, the “CXCL13/BLC/BCA-1, Dsg2^mut/mut (Bay11-7082) vs Dsg2^mut/mut” value [1] was less than 1 and the “CXCL13/BLC/BCA-1, Dsg2^mut/mut (Bay11-7082) vs WT” value [1] was 2-4. For the same molecule, the “CXCL16, Dsg2^mut/mut (Bay11-7082) vs Dsg2^mut/mut” value [1] was less than 1, the “CXCL16, Dsg2^mut/mut (Bay11-7082) vs WT” value [1] was less than 1 and the “Chemerin, Dsg2^mut/mut (Bay11-7082) vs Dsg2^mut/mut” value [1] was less than 1. For the same molecule, the “Chemerin, Dsg2^mut/mut (Bay11-7082) vs WT” value [1] was less than 1, the “Chitinase 3-like 1, Dsg2^mut/mut (Bay11-7082) vs Dsg2^mut/mut” value [1] was less than 1 and the “Chitinase 3-like 1, Dsg2^mut/mut (Bay11-7082) vs WT” value [1] was less than 1. For the same molecule, the “Coagulation Factor III/Tissue Factor, Dsg2^mut/mut (Bay11-7082) vs Dsg2^mut/mut” value [1] was less than 1, the “Coagulation Factor III/Tissue Factor, Dsg2^mut/mut (Bay11-7082) vs WT” value [1] was less than 1 and the “Complement Component C5/C5a, Dsg2^mut/mut (Bay11-7082) vs Dsg2^mut/mut” value [1] was less than 1. The “Complement Component C5/C5a, Dsg2^mut/mut (Bay11-7082) vs WT” value [1] was less than 1, the “Complement Factor D, Dsg2^mut/mut (Bay11-7082) vs Dsg2^mut/mut” value [1] was less than 1 and the “Complement Factor D, Dsg2^mut/mut (Bay11-7082) vs WT” value [1] was less than 1. For the same molecule, the “Cystatin C, Dsg2^mut/mut (Bay11-7082) vs Dsg2^mut/mut” value [1] was less than 1, the “Cystatin C, Dsg2^mut/mut (Bay11-7082) vs WT” value [1] was less than 1 and the “DKK-1, Dsg2^mut/mut (Bay11-7082) vs Dsg2^mut/mut” value [1] was less than 1. The “DKK-1, Dsg2^mut/mut (Bay11-7082) vs WT” value [1] was less than 1, the “DPPIV/CD26, Dsg2^mut/mut (Bay11-7082) vs Dsg2^mut/mut” value [1] was less than 1 and the “DPPIV/CD26, Dsg2^mut/mut (Bay11-7082) vs WT” value [1] was 1-2. The “E-Selectin/CD62E, Dsg2^mut/mut (Bay11-7082) vs Dsg2^mut/mut” value [1] was less than 1, the “E-Selectin/CD62E, Dsg2^mut/mut (Bay11-7082) vs WT” value [1] was less than 1 and the “EGF, Dsg2^mut/mut (Bay11-7082) vs Dsg2^mut/mut” value [1] was less than 1. For the same molecule, the “EGF, Dsg2^mut/mut (Bay11-7082) vs WT” value [1] was 1-2, the “Endoglin/CD105, Dsg2^mut/mut (Bay11-7082) vs Dsg2^mut/mut” value [1] was less than 1 and the “Endoglin/CD105, Dsg2^mut/mut (Bay11-7082) vs WT” value [1] was less than 1. For the same molecule, the “Endostatin, Dsg2^mut/mut (Bay11-7082) vs Dsg2^mut/mut” value [1] was less than 1, the “Endostatin, Dsg2^mut/mut (Bay11-7082) vs WT” value [1] was less than 1 and the “Eotaxin (CCL11), Dsg2^mut/mut (Bay11-7082) vs Dsg2^mut/mut” value [1] was less than 1. The “Eotaxin (CCL11), Dsg2^mut/mut (Bay11-7082) vs WT” value [1] was less than 1, the “FGF acidic, Dsg2^mut/mut (Bay11-7082) vs Dsg2^mut/mut” value [1] was less than 1 and the “FGF acidic, Dsg2^mut/mut (Bay11-7082) vs WT” value [1] was less than 1. The “FGF-21, Dsg2^mut/mut (Bay11-7082) vs Dsg2^mut/mut” value [1] was less than 1, the “FGF-21, Dsg2^mut/mut (Bay11-7082) vs WT” value [1] was less than 1 and the “FLt-3 Ligand, Dsg2^mut/mut (Bay11-7082) vs Dsg2^mut/mut” value [1] was less than 1. For the same molecule, the “FLt-3 Ligand, Dsg2^mut/mut (Bay11-7082) vs WT” value [1] was less than 1, the “Fetuin A/AHSG, Dsg2^mut/mut (Bay11-7082) vs Dsg2^mut/mut” value [1] was less than 1 and the “Fetuin A/AHSG, Dsg2^mut/mut (Bay11-7082) vs WT” value [1] was less than 1. The “G-CSF, Dsg2^mut/mut (Bay11-7082) vs Dsg2^mut/mut” value [1] was less than 1, the “G-CSF, Dsg2^mut/mut (Bay11-7082) vs WT” value [1] was 1-2 and the “GDF-15, Dsg2^mut/mut (Bay11-7082) vs Dsg2^mut/mut” value [1] was less than 1. For the same molecule, the “GDF-15, Dsg2^mut/mut (Bay11-7082) vs WT” value [1] was less than 1, the “GM-CSF, Dsg2^mut/mut (Bay11-7082) vs Dsg2^mut/mut” value [1] was less than 1 and the “GM-CSF, Dsg2^mut/mut (Bay11-7082) vs WT” value [1] was less than 1. For the same molecule, the “Gas 6, Dsg2^mut/mut (Bay11-7082) vs Dsg2^mut/mut” value [1] was less than 1, the “Gas 6, Dsg2^mut/mut (Bay11-7082) vs WT” value [1] was less than 1 and the “HGF, Dsg2^mut/mut (Bay11-7082) vs Dsg2^mut/mut” value [1] was less than 1. For the same molecule, the “HGF, Dsg2^mut/mut (Bay11-7082) vs WT” value [1] was 4-6, the “I-TAC (CXCL11), Dsg2^mut/mut (Bay11-7082) vs Dsg2^mut/mut” value [1] was less than 1 and the “I-TAC (CXCL11), Dsg2^mut/mut (Bay11-7082) vs WT” value [1] was less than 1. For the same molecule, the “IFN-y, Dsg2^mut/mut (Bay11-7082) vs Dsg2^mut/mut” value [1] was less than 1, the “IFN-y, Dsg2^mut/mut (Bay11-7082) vs WT” value [1] was 1-2 and the “IGFBP-1, Dsg2^mut/mut (Bay11-7082) vs Dsg2^mut/mut” value [1] was less than 1. The “IGFBP-1, Dsg2^mut/mut (Bay11-7082) vs WT” value [1] was 1-2, the “IGFBP-2, Dsg2^mut/mut (Bay11-7082) vs Dsg2^mut/mut” value [1] was less than 1 and the “IGFBP-2, Dsg2^mut/mut (Bay11-7082) vs WT” value [1] was less than 1. The “IGFBP-3, Dsg2^mut/mut (Bay11-7082) vs Dsg2^mut/mut” value [1] was less than 1, the “IGFBP-3, Dsg2^mut/mut (Bay11-7082) vs WT” value [1] was less than 1 and the “IGFBP-5, Dsg2^mut/mut (Bay11-7082) vs Dsg2^mut/mut” value [1] was less than 1. The “IGFBP-5, Dsg2^mut/mut (Bay11-7082) vs WT” value [1] was less than 1, the “IGFBP-6, Dsg2^mut/mut (Bay11-7082) vs Dsg2^mut/mut” value [1] was less than 1 and the “IGFBP-6, Dsg2^mut/mut (Bay11-7082) vs WT” value [1] was less than 1. For the same molecule, the “IL-1a (IL-1F1), Dsg2^mut/mut (Bay11-7082) vs Dsg2^mut/mut” value [1] was less than 1, the “IL-1a (IL-1F1), Dsg2^mut/mut (Bay11-7082) vs WT” value [1] was less than 1 and the “IL-1ra (IL-1F3), Dsg2^mut/mut (Bay11-7082) vs Dsg2^mut/mut” value [1] was less than 1. The “IL-1ra (IL-1F3), Dsg2^mut/mut (Bay11-7082) vs WT” value [1] was 1-2.
